Among the data in patent US20240116985A1, “STAPLED PEPTIDES AND METHODS THEREOF” (priority 2020, published 2024) are IC50 values, retold here.

The target of the assay is T1, full-length beta-Catenin (Uniprot ID P35222) (Homo sapiens, UniProt P35222).
T1 construct: 10 nM full-length beta-Catenin (Uniprot ID P35222)
T1 sequence (P35222 1-781): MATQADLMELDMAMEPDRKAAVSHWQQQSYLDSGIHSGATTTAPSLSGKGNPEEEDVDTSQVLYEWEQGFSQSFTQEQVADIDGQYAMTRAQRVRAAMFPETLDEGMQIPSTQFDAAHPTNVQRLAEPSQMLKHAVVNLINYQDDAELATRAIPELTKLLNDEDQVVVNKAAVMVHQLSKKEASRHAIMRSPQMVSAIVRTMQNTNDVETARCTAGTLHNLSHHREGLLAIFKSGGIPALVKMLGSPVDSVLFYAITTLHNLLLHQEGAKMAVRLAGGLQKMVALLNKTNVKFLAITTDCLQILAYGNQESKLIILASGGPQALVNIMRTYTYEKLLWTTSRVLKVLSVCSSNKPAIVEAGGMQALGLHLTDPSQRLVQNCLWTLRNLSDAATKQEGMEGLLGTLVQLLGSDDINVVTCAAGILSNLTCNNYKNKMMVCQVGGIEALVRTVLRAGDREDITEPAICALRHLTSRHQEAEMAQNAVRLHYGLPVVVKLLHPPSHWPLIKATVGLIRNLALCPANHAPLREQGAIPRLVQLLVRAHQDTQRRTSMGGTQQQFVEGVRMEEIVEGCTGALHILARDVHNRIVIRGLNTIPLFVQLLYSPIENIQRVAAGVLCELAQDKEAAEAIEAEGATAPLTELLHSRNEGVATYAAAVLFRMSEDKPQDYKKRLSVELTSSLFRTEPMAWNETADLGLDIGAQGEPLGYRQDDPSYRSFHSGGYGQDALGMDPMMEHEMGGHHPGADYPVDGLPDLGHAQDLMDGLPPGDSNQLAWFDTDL
The assay is described as follows: Fluorescence polarization IC50 (beta-catenin / 5FAM-TCF4 10-53 competition). The class given is binding. The conditions noted are these: fluorescence polarization; read-out: beta-Catenin FP IC50.

As a reminder, the IC50 is the concentration that inhibits the measured activity by half.

`CC(=O)N1CCC[C@]12CC=CCCCC1(CCCC=CCCOC(=O)N3CCC(C(=O)N[C@@H](Cc4ccccc4C(F)(F)F)C(=O)N[C@@H](Cc4csc5ccccc45)C(=O)N[C@@H](C)C(N)=O)(CC3)NC(=O)[C@H](CC(C)C)NC(=O)[C@H](Cc3ccccc3)NC(=O)[C@H](C)NC(=O)[C@H](CCC(N)=O)NC(=O)[C@H](Cc3cccc(C(=O)O)c3)NC(=O)[C@H](CC(=O)O)NC1=O)NC(=O)[C@H](CC(C)(C)C)NC(=O)[C@H](CC(=O)O)NC2=O` (stereo partly drawn) [I-2584, Ac-PL3-Asp-Npg-B5-Asp-3COOHF-Gln-Ala-Phe-Leu-SPip1-2F3MeF-BztA-Ala-NH2]: the IC50 stood at 1840 nM. As for `CC(=O)N1CCC[C@]12CC=CCCCC1(CCCC=CCCCOC(=O)N3CCC(C(=O)N[C@@H](Cc4ccccc4C(F)(F)F)C(=O)N[C@@H](Cc4csc5ccccc45)C(=O)N[C@@H](C)C(N)=O)(CC3)NC(=O)[C@H](CC(C)C)NC(=O)[C@H](Cc3ccccc3)NC(=O)[C@H](C)NC(=O)[C@H](CCC(N)=O)NC(=O)[C@H](Cc3cccc(C(=O)O)c3)NC(=O)[C@H](CC(=O)O)NC1=O)NC(=O)[C@H](CC(C)(C)C)NC(=O)[C@H](CC(=O)O)NC2=O` (stereo partly drawn) [I-2585, Ac-PL3-Asp-Npg-B5-Asp-3COOHF-Gln-Ala-Phe-Leu-SPip2-2F3MeF-BztA-Ala-NH2], the figure is 452 nM; as for `CC(=O)N1CCC[C@]12CC=CCCCC1(CCCC=CCCCOC(=O)N3CCC(C(=O)N[C@@H](Cc4ccccc4C(F)(F)F)C(=O)N[C@@H](Cc4csc5ccccc45)C(=O)N[C@@H](C)C(N)=O)(CC3)NC(=O)[C@H](CC(C)C)NC(=O)[C@H](Cc3ccccc3)NC(=O)[C@H](C)NC(=O)[C@H](CCC(N)=O)NC(=O)[C@H](Cc3cccc(C(=O)O)c3)NC(=O)[C@H](CC(=O)O)NC1=O)NC(=O)[C@H](CC(C)(C)C)NC(=O)[C@H](CC(=O)O)NC2=O` (stereo partly drawn) [I-2586, Ac-PL3-Asp-Npg-B5-Asp-3COOHF-Gln-Ala-Phe-Leu-SPip2-2F3MeF-BztA-Ala-NH2], 345 nM. In the case of `CC(=O)N1CCC[C@]12CC=CCCCC1(CCCC=CCCCCOC(=O)N3CCC(C(=O)N[C@@H](Cc4ccccc4C(F)(F)F)C(=O)N[C@@H](Cc4csc5ccccc45)C(=O)N[C@@H](C)C(N)=O)(CC3)NC(=O)[C@H](CC(C)C)NC(=O)[C@H](Cc3ccccc3)NC(=O)[C@H](C)NC(=O)[C@H](CCC(N)=O)NC(=O)[C@H](Cc3cccc(C(=O)O)c3)NC(=O)[C@H](CC(=O)O)NC1=O)NC(=O)[C@H](CC(C)(C)C)NC(=O)[C@H](CC(=O)O)NC2=O` (stereo partly drawn) [I-2587, Ac-PL3-Asp-Npg-B5-Asp-3COOHF-Gln-Ala-Phe-Leu-SPip3-2F3MeF-BztA-Ala-NH2], the IC50 amounted to 273 nM. With `CC(=O)N1CCC[C@]12CC=CCCCC1(CCCC=CCCCOC(=O)N3CCC(C(=O)N[C@@H](Cc4ccsc4)C(=O)N[C@@H](Cc4csc5ccccc45)C(=O)N[C@@H](CCC(N)=O)C(N)=O)(CC3)NC(=O)[C@H](CC(C)C)NC(=O)[C@H](Cc3ccccc3)NC(=O)[C@H](C)NC(=O)[C@H](C)NC(=O)[C@H](Cc3cccc(C(=O)O)c3)NC(=O)[C@H](CC(=O)O)NC1=O)NC(=O)[C@H](CC(C)(C)C)NC(=O)[C@H](CC(=O)O)NC2=O` (stereo partly drawn) [I-2588, Ac-PL3-Asp-Npg-B5-Asp-3COOHF-Ala-Ala-Phe-Leu-SPip2-3Thi-BztA-Gln-NH2] the figure was 26 nM; with `CC(=O)N1CCC[C@]12CC=CCCCC1(CCCC=CCCOC(=O)N3CCC(C(=O)N[C@@H](Cc4ccsc4)C(=O)N[C@@H](Cc4csc5ccccc45)C(=O)N[C@@H](C)C(N)=O)(CC3)NC(=O)[C@H](CC(C)C)NC(=O)[C@H](Cc3ccccc3)NC(=O)[C@H](C)NC(=O)[C@H](CCC(N)=O)NC(=O)[C@H](Cc3cccc(C(=O)O)c3)NC(=O)[C@H](CC(=O)O)NC1=O)NC(=O)[C@H](CC(C)(C)C)NC(=O)[C@H](CC(=O)O)NC2=O` (stereo partly drawn) [I-2591, Ac-PL3-Asp-Npg-B5-Asp-3COOHF-Gln-Ala-Phe-Leu-SPip1-3Thi-BztA-Ala-NH2], 602 nM; with `CC(=O)N1CCC[C@]12CC1OC1CCCC1(CCCC=CCCCOC(=O)N3CC[C@@](C(=O)N[C@@H](Cc4ccccc4C(F)(F)F)C(=O)N[C@@H](Cc4csc5ccccc45)C(=O)N[C@@H](CCC(N)=O)C(N)=O)(C3)NC(=O)[C@H](CC(C)C)NC(=O)[C@H](Cc3ccccc3)NC(=O)[C@H](C)NC(=O)[C@H](C)NC(=O)[C@H](Cc3cccc(C(=O)O)c3)NC(=O)[C@H](CC(=O)O)NC1=O)NC(=O)[C@H](CC(C)(C)C)NC(=O)[C@H](CC(=O)O)NC2=O` (stereo partly drawn) [I-2597, Ac-PL3-Asp-Npg-B5-Asp-3COOHF-Ala-Ala-Phe-Leu-PyrS2-2F3MeF-BztA-Gln-NH2], 726 nM.

For `CC(C)C[C@H](NC(=O)[C@]12CCN(C1)C(=O)OCCCC=CCCCC1(CCCC=CCCCC(=O)N3CCC[C@@]3(C)C(=O)N[C@@H](CC(=O)O)C(=O)N1)C(=O)N[C@@H](C)C(=O)N[C@@H](CC(=O)O)C(=O)N[C@@H](CC(=O)O)C(=O)N[C@@H](C)C(=O)N[C@@H](C)C(=O)N[C@@H](Cc1ccccc1)C(=O)N2)C(=O)N[C@@H](Cc1ccsc1)C(=O)N[C@@H](Cc1csc2ccccc12)C(=O)N[C@@H](CCC(N)=O)C(N)=O` (stereo partly drawn) [I-2598, 5hexenyl-MePro-Asp-B5-Ala-Asp-Asp-Ala-Ala-Phe-PyrS2-Leu-3Thi-BztA-Gln-NH2], the IC50 worked out at 1350 nM. With `CC(C)C[C@H](NC(=O)[C@]12CCN(C1)C(=O)OCCCCCCCCC1(CCCCCCCCC(=O)N3CCC[C@@]3(C)C(=O)N[C@@H](CC(=O)O)C(=O)N1)C(=O)N[C@@H](C)C(=O)N[C@@H](CC(=O)O)C(=O)N[C@@H](CC(=O)O)C(=O)N[C@@H](C)C(=O)N[C@@H](C)C(=O)N[C@@H](Cc1ccccc1)C(=O)N2)C(=O)N[C@@H](Cc1ccsc1)C(=O)N[C@@H](Cc1csc2ccccc12)C(=O)N[C@@H](CCC(N)=O)C(N)=O` (stereo partly drawn) [I-2600, 5hexenyl-MePro-Asp-B5-Ala-Asp-Asp-Ala-Ala-Phe-PyrS2-Leu-3Thi-BztA-Gln-NH2] the figure was 923 nM; with `CC(C)C[C@H](NC(=O)[C@]12CCN(C1)C(=O)OCCCCCCCCC1(CCCCCCCC(=O)N3CCC[C@@]3(C)C(=O)N[C@@H](CC(=O)O)C(=O)N1)C(=O)N[C@@H](C)C(=O)N[C@@H](CC(=O)O)C(=O)N[C@@H](CC(=O)O)C(=O)N[C@@H](C)C(=O)N[C@@H](C)C(=O)N[C@@H](Cc1ccccc1)C(=O)N2)C(=O)N[C@@H](Cc1ccsc1)C(=O)N[C@@H](Cc1csc2ccccc12)C(=O)N[C@@H](CCC(N)=O)C(N)=O` (stereo partly drawn) [I-2601, 4pentenyl-MePro-Asp-B5-Ala-Asp-Asp-Ala-Ala-Phe-PyrS2-Leu-3Thi-BztA-Gln-NH2], 592 nM; with `CC(C)C[C@H](NC(=O)[C@]12CCN(C1)C(=O)OCCCC=CCCCC1(CCCC=CCCCC(=O)N3CCC[C@@]3(C)C(=O)N[C@@H](CC(=O)O)C(=O)N1)C(=O)N[C@@H](C)C(=O)N[C@@H](CC(=O)O)C(=O)N[C@@H](Cc1cccc(C(=O)O)c1)C(=O)N[C@@H](C)C(=O)N[C@@H](C)C(=O)N[C@@H](Cc1ccccc1)C(=O)N2)C(=O)N[C@@H](Cc1ccsc1)C(=O)N[C@@H](Cc1csc2ccccc12)C(=O)N[C@@H](CCC(N)=O)C(N)=O` (stereo partly drawn) [I-2602, 5hexenyl-MePro-Asp-B5-Ala-Asp-3COOHF-Ala-Ala-Phe-PyrS2-Leu-3Thi-BztA-Gln-NH2], 8220 nM. With `CC(C)C[C@H](NC(=O)[C@]12CCN(C1)C(=O)OCCCC=CCCCC1(CCCC=CCCC(=O)N3CCC[C@@]3(C)C(=O)N[C@@H](CC(=O)O)C(=O)N1)C(=O)N[C@@H](C)C(=O)N[C@@H](CC(=O)O)C(=O)N[C@@H](Cc1cccc(C(=O)O)c1)C(=O)N[C@@H](C)C(=O)N[C@@H](C)C(=O)N[C@@H](Cc1ccccc1)C(=O)N2)C(=O)N[C@@H](Cc1ccsc1)C(=O)N[C@@H](Cc1csc2ccccc12)C(=O)N[C@@H](CCC(N)=O)C(N)=O` (stereo partly drawn) [I-2603, 4pentenyl-MePro-Asp-B5-Ala-Asp-3COOHF-Ala-Ala-Phe-PyrS2-Leu-3Thi-BztA-Gln-NH2] the figure was 767 nM; with `CC(C)C[C@H](NC(=O)[C@]12CCN(C1)C(=O)OCCCCCCCCC1(CCCCCCCCC(=O)N3CCC[C@@]3(C)C(=O)N[C@@H](CC(=O)O)C(=O)N1)C(=O)N[C@@H](C)C(=O)N[C@@H](CC(=O)O)C(=O)N[C@@H](Cc1cccc(C(=O)O)c1)C(=O)N[C@@H](C)C(=O)N[C@@H](C)C(=O)N[C@@H](Cc1ccccc1)C(=O)N2)C(=O)N[C@@H](Cc1ccsc1)C(=O)N[C@@H](Cc1csc2ccccc12)C(=O)N[C@@H](CCC(N)=O)C(N)=O` (stereo partly drawn) [I-2604, 5hexenyl-MePro-Asp-B5-Ala-Asp-3COOHF-Ala-Ala-Phe-PyrS2-Leu-3Thi-BztA-Gln-NH2], 1120 nM. With `CC(C)C[C@H](NC(=O)[C@]12CCN(C1)C(=O)OCCCCCCCCC1(CCCCCCCC(=O)N3CCC[C@@]3(C)C(=O)N[C@@H](CC(=O)O)C(=O)N1)C(=O)N[C@@H](C)C(=O)N[C@@H](CC(=O)O)C(=O)N[C@@H](Cc1cccc(C(=O)O)c1)C(=O)N[C@@H](C)C(=O)N[C@@H](C)C(=O)N[C@@H](Cc1ccccc1)C(=O)N2)C(=O)N[C@@H](Cc1ccsc1)C(=O)N[C@@H](Cc1csc2ccccc12)C(=O)N[C@@H](CCC(N)=O)C(N)=O` (stereo partly drawn) [I-2605, 4pentenyl-MePro-Asp-B5-Ala-Asp-3COOHF-Ala-Ala-Phe-PyrS2-Leu-3Thi-BztA-Gln-NH2] the figure was 608 nM.
